The test system of assay [1] is L569 E. faecium VanA. Put plainly: MIC, broth microdilution (CLSI). Format: cell-based, Enterococcus faecium. Conditions: Enterococcus faecium, L569 E. faecium VanA, read-out: MIC. Here is the method:
(§1) Inocula are: 2-5×10^5 CFU/mL for Gram positive and Gram negative bacteria; 10^4 CFU/mL for Candida albicans.
(§2) The effect of 30% bovine serum is determined under the same experimental conditions.
(§3) Cultures are incubated at 35° C. in air. After 18-24 hours visual readings are performed and MICs determined. The MIC (Minimal Inhibitory Concentration) is defined as the lower concentration of antibiotic at which there is no visible growth. The strains used are clinical isolates or strains from American Type Culture Collection (ATCC).
(Dilution methods test growth across graded concentrations, often in twofold steps.)

Assay [2] deals with L2048 B. cenocepacia. Put plainly: MIC, broth microdilution (CLSI). Format: cell-based. Conditions: Burkholderia cenocepacia; L2048 B. cenocepacia; read-out: MIC. Here is the method: (§4) Antimicrobial activity of the antibiotic FIIRV 104/18 complex is determined by the broth microdilution method according to the procedures published by the Clinical and Laboratory Standards Institute (CLSI), formerly the National Committee for Clinical Laboratory Standards (NCCLS) (document M07-A9). Inocula are: 2-5×10^5 CFU/mL for Gram positive and Gram negative bacteria; 10^4 CFU/mL for Candida albicans.
(§5) The media used are: cation adjusted Mueller Hinton broth (CAMHB) for Staphylococci, Enterococci, Moraxella catarrhalis, Escherichia coli; Todd Hewitt broth (THB) for Streptococci; RPMI 1640 Medium for C. albicans. The effect of 30% bovine serum is determined under the same experimental conditions.
(§6) Cultures are incubated at 35° C. in air. After 18-24 hours visual readings are performed and MICs determined. The MIC (Minimal Inhibitory Concentration) is defined as the lower concentration of antibiotic at which there is no visible growth. The strains used are clinical isolates or strains from American Type Culture Collection (ATCC). Individual factors of antibiotic FIIRV 104/18 are dissolved in DMSO to obtain a 1000 μg/mL stock solution, and subsequently diluted in water to obtain working solution.

The test system of assay [3] is L1577 S. epidermidis. The experiment in a line: MIC, broth microdilution (CLSI). Format: cell-based. The settings on record: Staphylococcus epidermidis; L1577 S. epidermidis; CAMHB; read-out: MIC. How it is done: as §1, §2, §3
Assay [4] has as its system L1729 S. haemolyticus MDR. Put plainly: MIC, broth microdilution (CLSI). Format: cell-based. Conditions: Staphylococcus haemolyticus; L1729 S. haemolyticus MDR; CAMHB; read-out: MIC. Here is the method: as §1, §2, §3
Assay [5] has as its system L1400 S. aureus MRSA. The experiment in a line: MIC, broth microdilution (CLSI). The format is cell-based. The settings on record: Staphylococcus aureus; L1400 S. aureus MRSA; CAMHB; read-out: MIC. How it is done: as §1, §2, §3
For assay [6], the system named is L100 S. aureus ATCC 6538. The experiment in a line: MIC, broth microdilution (CLSI). The format is cell-based. The settings on record: Staphylococcus aureus, ATCC6538; L100 S. aureus ATCC 6538; CAMHB; read-out: MIC. Here is the method: as §1, §2, §3
The subject of assay [7] is L559 E. faecalis. The experiment in a line: MIC, broth microdilution (CLSI). The format is cell-based. Conditions: Enterococcus faecalis; L559 E. faecalis; CAMHB; read-out: MIC. How it is done: as §1, §2, §3
In assay [8] the test system is L47 E. coli, SKF 12140. The experiment in a line: MIC, broth microdilution (CLSI). Format: cell-based. Conditions: Escherichia coli; L47 E. coli, SKF 12140; CAMHB; read-out: MIC. How it is done: as §1, §2, §3
Assay [9] relates to L3030 A. baumannii. The experiment in a line: MIC, broth microdilution (CLSI). Format: cell-based. Conditions: Acinetobacter baumannii; L3030 A. baumannii; read-out: MIC. How it is done: as §1, §2, §3
Assay [10] relates to L1730 S. haemolyticus. Put plainly: MIC, broth microdilution (CLSI). Conditions: Staphylococcus haemolyticus; L1730 S. haemolyticus; CAMHB; read-out: MIC. The format is cell-based. How it is done: as §1, §2, §3
Assay [11] relates to L568 E. faecium. Put plainly: MIC, broth microdilution (CLSI). Conditions: Enterococcus faecium; L568 E. faecium; CAMHB; read-out: MIC. Format: cell-based. How it is done: as §1, §2, §3
The test system of assay [12] is L3294 M. catarrhalis. Put plainly: MIC, broth microdilution (CLSI). The settings on record: Moraxella catarrhalis; L3294 M. catarrhalis; CAMHB; read-out: MIC. The format is cell-based. Here is the method:
as §1, §2, §3

For assay [13], the system named is L49 S. pyogenes C203. The experiment in a line: MIC, broth microdilution (CLSI). The settings on record: Streptococcus pyogenes; L49 S. pyogenes C203; THB; read-out: MIC. Format: cell-based. How it is done: as §1, §2, §3
Assay [14] relates to L44 S. pneumoniae. Put plainly: MIC, broth microdilution (CLSI). Format: cell-based. The settings on record: Streptococcus pneumoniae; L44 S. pneumoniae; THB; read-out: MIC. How it is done: as §1, §2, §3
For assay [15], the system named is Gram-positive susceptible, resistant and multi-resistant pathogenic bacteria. Put plainly: Growth inhibition of Gram-positive bacteria (summary). Format: cell-based. Conditions: Gram positive bacteria: Staphylococci incl. MRSA and MR coagulase-negative, Streptococci, Enterococci incl. VanA. How it is done:
as §4, §5, §6

Assay [16] has as its system L560 E. faecalis VanA. The experiment in a line: MIC, broth microdilution (CLSI). Conditions: Enterococcus faecalis, L560 E. faecalis VanA, read-out: MIC. The format is cell-based, Enterococcus faecalis. How it is done:
as §1, §2, §3

Assay [17] relates to L145 C. albicans. Put plainly: MIC, broth microdilution (CLSI). The format is cell-based, Candida albicans. The settings on record: Candida albicans; L145 C. albicans; RPMI; inoculum 10^4 CFU/mL; read-out: MIC. How it is done:
as §4, §5, §6

In assay [18] the test system is L819 S. aureus Smith ATCC19636. Put plainly: MIC, broth microdilution (CLSI). The settings on record: Staphylococcus aureus, read-out: MIC. Format: cell-based, Staphylococcus aureus. How it is done: as §1, §2, §3
Assay [19] concerns Staphylococcus aureus Smith ATCC 19636. The experiment in a line: Murine Staphylococcus aureus infection model. The format is in vivo, ICR mice. Conditions: ATCC19636, read-out: ED50 (50% effective dose), mice infected ip with S. aureus Smith ATCC 19636, iv within 10-15 min after infection, Spearman-Karber. Here is the method: Female ICR mice (Harlan, Italy) weighing 21-24 g are infected intraperitoneally (ip) with 5×10^4 cells of Staphylococcus aureus Smith ATCC 19636 in 0.5 mL of 5% gastric mucine. Antibiotic FIIRV 104/18 factor F795 is administered intravenously (iv) within 10-15 min after infection. […] In: Statistical Methods in Biological Assay, 524-530, (1952) Charles Griffin &Co., Ltd., London].

This note sets out measurements from patent US20190002942A1, “ANTIBIOTIC FIIRV 104/18 COMPLEX AND THE ISOLATED INDIVIDUAL FACTORS THEREOF” (Fondazione Istituto Insubrico di Ricerca per la Vita, priority 2015, published 2019).

Values after ≈ are worked out from the molar mass of the structure shown. Where two headings read alike, the source gives them in different places.

Usually MIC stands for the lowest concentration that inhibits growth of the organism. In general, ED50 refers to the midpoint of the dose-response relation. `COC(=O)c1c(C)cc2c(c1O)[C@]1(O)C(=O)c3cc4c(c(O)c3C(=O)[C@]1(OC)[C@H](O)C2)C(=O)C=C(N[C@H]1O[C@@H](C)[C@H](O[C@@H]2CCC(=O)[C@H](C)O2)[C@@H](O)[C@H]1OC)C4=O` [F795, (6R,6aS,14aR)-methyl 11-[(2S,3R,4R,5R,6S)-4-hydroxy-3-methoxy-6-methyl-5-{[(2S,6S)-6-methyl-5-oxotetrahydro-2H-pyran-2-yl]oxy}tetrahydro-2H-pyran-2-ylamino]-1,6,8,14a-tetrahydroxy-6a-methoxy-3-methyl-7,9,12,14-tetraoxo-5,6,6a,7,9,12,14,14a-octahydrobenzo[a]tetracene-2-carboxylate]: the MIC in assay [1] (+30% SB (bovine serum)) was 2 µg/mL (≈ 2.51 µM); in [1] (CAMHB), 0.25 µg/mL (≈ 0.314 µM); in assay [2], 32 µg/mL (≈ 40.2 µM); in [3], 0.015 µg/mL (≈ 0.0189 µM); in assay [4], 0.015 µg/mL (≈ 0.0189 µM); in assay [5], 0.015 µg/mL (≈ 0.0189 µM). Further, the MIC in assay [6] was 0.008 µg/mL (≈ 0.0101 µM); in [7], 0.25 µg/mL (≈ 0.314 µM); in assay [8], > 128 µg/mL; in assay [9], 16 µg/mL (≈ 20.1 µM); in assay [10], 0.015 µg/mL (≈ 0.0189 µM); in [11], 0.25 µg/mL (≈ 0.314 µM). The MIC in [12] is 0.125 µg/mL (≈ 0.157 µM); in [13] it was 0.015 µg/mL (≈ 0.0189 µM); in assay [14] it was 0.015 µg/mL (≈ 0.0189 µM); in assay [16] (+30% SB (bovine serum)), 0.5 µg/mL (≈ 0.628 µM); in assay [16] (CAMHB), 0.125 µg/mL (≈ 0.157 µM); in assay [17], > 128 µg/mL. Further, the MIC in assay [18] (ATCC19636, L819 S. aureus Smith ATCC19636, CAMHB) amounted to 0.002 µg/mL (≈ 0.00251 µM); in assay [18] (ATCC19636, L819 S. aureus Smith, +30% SB (bovine serum)), 0.125 µg/mL (≈ 0.157 µM). The “antibacterial activity (in words)” value in assay [15] is “very high antibacterial activity”. The ED50 in assay [19] turned out to be 0.8 mg/kg.
